Test results from patent US20230143119A1, “PHARMACEUTICAL COMPOSITION FOR PREVENTION OR TREATMENT OF DIABETES AND METABOLIC DISEASES ASSOCIATED THEREWITH” (DONG-A ST CO., LTD., priority 2020, published 2023).

Tests used:
[1] = system: DIO mice; experiment: 12-week drug-diet admixture in diet-induced obese (DIO) and insulin resistant mice; assay type: in vivo, C57BL/6J mice; details: compound 1 100 mg/kg/day, elafibranor 30 mg/kg/day, alone or in combination, 12 weeks
Description: To induce insulin resistance, six-weeks old male C57BL/6J mice were supplied with a special diet of high fat, high fructose and high cholesterol (Research Diets Inc., D09100301) for at least 27 weeks. A drug-diet admixture was prepared so that diet-induced obese (DIO) and insulin resistant mice could be administered with each of compound 1 at 100 mg/kg/day and elafibranor at 30 mg/kg/day as a PPAR agonist alone or in combination. The prepared drug-diet admixture was supplied to mice for 12 weeks. Nonfasting blood glucose level was measured from plasma collected after autopsy at a time point of 12 weeks after drug administration using a Roche's AccuChek Active glucose meter.

[2] = system: HF mice; experiment: Three-week administration in high fat diet (HF) insulin resistant mice; assay type: in vivo, C57BL/6J male mice; details: for effect of reducing body fat: compound 1 50 mg/kg or metformin 150 mg/kg twice a day alone, body composition analysis by NMR; for blood concentration of total GLP-1 (GLP-1 secretion) / weight loss: compound 1 50 mg/kg, metformin 150 mg/kg, twice a day, alone or co-administered; for blood concentration of total GLP-1 (GLP-1 secretion): three weeks, nonfasting autopsy; for weight loss: two weeks
Description: Four-weeks old C57BL/6J male mice were supplied with a high fat diet (Research Diets Inc., D12492; 60% kcal fat) for ten weeks so as to induce insulin resistance. After acclimatization to drug administration for two weeks, the mice were assigned into each group based on body weight and body fat. Compound 1 was administered alone at 50 mg/kg twice a day to a compound 1 monotherapy group, and metformin was administered alone at 150 mg/kg twice a day to a metformin monotherapy group. The co-administration group was orally co-administered with compound 1 at 50 mg/kg and metformin at 150 mg/kg twice a day for three weeks. […] Fasting blood glucose was measured from whole blood collected from a tail vein after fasting for six hours at the second week of administration using a Roche's AccuChek Active glucose meter.

[3] = system: normal mice; experiment: Single dose administration in normal mice with oral sucrose loading; assay type: in vivo, ICR male mice; details: oral compound 1 3 mg/kg, voglibose 0.02 mg/kg, alone or in combination; sucrose 2 g/kg 30 min later
Description: At a time point of 30 minutes later, sucrose solution was orally loaded at 2 g/kg/10 ml. […] A time-blood glucose level response curve was obtained. In terms of a rate of change, a comparison was made between an area under the time-blood glucose level curve in a control group administered with solvent only and an area under the time-blood glucose level curve in a drug administration group.

Compound	hypoglycemic effect (nonfasting blood glucose level) [1]	effect of reducing body fat [2]	blood concentration of total GLP-1 (GLP-1 secretion) [2]	weight loss [2]	hypoglycemic effect (postprandial blood glucose for two hours after sucrose loading) [3]
CCc1cnc(N2CCC(CCCOc3cc(F)c(-c4noc(C(C)C)n4)c(F)c3)CC2)nc1 [compound 1, 3-(4-(3-(1-(5-ethylpyrimidin-2-yl)piperidin-4-yl)propoxy)-2,6-difluorophenyl)-5-isopropyl-1,2,4-oxadiazole]	did not exhibit a significant hypoglycemic effect	no effect of reducing body fat	significant increase in GLP-1 secretion was not identified	−4.0%	–
OCC(CO)N[C@H]1C[C@](O)(CO)[C@@H](O)[C@H](O)[C@H]1O [voglibose]	–	–	–	–	no hypoglycemic effect
CSc1ccc(C(=O)/C=C/c2cc(C)c(OC(C)(C)C(=O)O)c(C)c2)cc1 [elafibranor]	exhibited a hypoglycemic effect	–	–	–	–
CN(C)C(=N)N=C(N)N [metformin]	–	insignificant effect of reducing body fat	significant increase in GLP-1 secretion was not identified	−4.4%	–
